ChEMBL document CHEMBL4229455, “Synthesis and anticancer activity of novel bisindolylhydroxymaleimide derivatives with potent GSK-3 kinase inhibition” (Bioorg Med Chem, 2018)

Columns and labels:
SN12C = assay: Cytotoxicity against human SN12C cells assessed as cell growth at 10 uM after 48 hrs by SRB assay relative to control; type: functional; conditions: read-out: Activity
[1] = molecular target: Dual specificity tyrosine-phosphorylation-regulated kinase 1A (Rattus norvegicus, UniProt Q63470); assay: Inhibition of recombinant rat DYRK1A kinase domain expressed in bacteria using KKISGRLSPIMTEQ as substrate in presence of [gamma-33P]ATP
LOX IMVI = assay: Cytotoxicity against human LOXIMVI cells assessed as cell growth at 10 uM after 48 hrs by SRB assay relative to control; type: functional; conditions: read-out: Activity
Aurora kinase B = Aurora kinase B (Homo sapiens, UniProt Q96GD4); assay: Inhibition of recombinant full length human aurora B expressed in baculovirus infected Sf9 insect cells assessed as residual activity at 10 uM using MBP as substrate in presence of [gamma-33P]ATP
NCI-H460 = assay: Cytotoxicity against human NCI-H460 cells assessed as cell growth at 10 uM after 48 hrs by SRB assay relative to control; type: functional; conditions: NCI-H460, 48 h, read-out: Activity
HOP-62 = assay: Cytotoxicity against human HOP62 cells assessed as cell growth at 10 uM after 48 hrs by SRB assay relative to control; type: functional; conditions: HOP-62, 48 h, read-out: Activity
Sus scrofa domesticus = species on record: Sus scrofa domesticus; assay: Inhibition of domestic porcine brain full length […] assessed as residual activity at 10 uM using RRKHAAIGSpAYSITA as substrate in presence of [gamma-33P]ATP
CDK9/cyclin T1 = CDK9/cyclin T1 (Homo sapiens, UniProt P50750); assay: Inhibition of recombinant full length human CDK9/cyclin T expressed in baculovirus infected Sf9 insect cells using YSPTSPSYSPTSPSYSPTSPSKKKK as substrate in presence of [gamma-33P]ATP
[2] = molecular target: Glycogen synthase kinase-3 (Sus scrofa) (UniProt B2LUN4+I6LNT8); assay: Inhibition of domestic porcine brain full length GSK-3alpha/beta assessed as residual activity at 10 uM using GS-1 as substrate in presence of [gamma-33P]ATP; conditions: Sus scrofa domesticus
SK-MEL-5 = assay: Cytotoxicity against human SK-MEL-5 cells assessed as cell growth at 10 uM after 48 hrs by SRB assay relative to control; type: functional; conditions: SK-MEL-5, 48 h, read-out: Activity
Hs-578T = assay: Cytotoxicity against human Hs 578T cells assessed as cell growth at 10 uM after 48 hrs by SRB assay relative to control; type: functional; conditions: read-out: Activity
[3] = molecular target: T1, Receptor-interacting serine/threonine-protein kinase 3 (Homo sapiens, UniProt Q9Y572); assay: Inhibition of recombinant full length human RIPK3 expressed in baculovirus infected Sf9 insect cells assessed as residual activity at 10 uM using MBP as substrate in presence of [gamma-33P]ATP
Target sequence in this assay (Q9Y572 whole entry, looked up): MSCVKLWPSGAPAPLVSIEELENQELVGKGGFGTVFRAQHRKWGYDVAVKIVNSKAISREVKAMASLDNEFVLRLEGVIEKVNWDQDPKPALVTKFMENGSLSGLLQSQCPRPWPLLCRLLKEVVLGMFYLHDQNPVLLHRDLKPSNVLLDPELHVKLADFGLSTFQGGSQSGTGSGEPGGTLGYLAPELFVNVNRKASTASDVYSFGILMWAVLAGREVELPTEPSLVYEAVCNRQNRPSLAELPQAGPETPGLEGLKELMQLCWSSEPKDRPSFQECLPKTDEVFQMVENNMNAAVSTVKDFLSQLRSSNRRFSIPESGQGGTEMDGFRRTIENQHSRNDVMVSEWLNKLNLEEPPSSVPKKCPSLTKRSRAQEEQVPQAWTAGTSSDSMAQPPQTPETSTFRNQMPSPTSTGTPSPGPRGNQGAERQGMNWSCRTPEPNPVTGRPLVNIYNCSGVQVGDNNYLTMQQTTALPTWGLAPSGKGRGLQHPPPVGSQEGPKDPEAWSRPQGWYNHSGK

RPMI-8226 = assay: Cytotoxicity against human RPMI8226 cells assessed as cell growth at 10 uM after 48 hrs by SRB assay relative to control; type: functional; conditions: RPMI-8226, 48 h, read-out: Activity
SNB-75 = assay: Cytotoxicity against human SNB75 cells assessed as cell growth at 10 uM after 48 hrs by SRB assay relative to control; type: functional; conditions: SNB-75, 48 h, read-out: Activity
[4] = molecular target: CDK2/Cyclin A2 (Homo sapiens) (UniProt P24941+P20248); assay: Inhibition of full length human CDK2/cyclin A assessed as residual activity at 10 uM using histone H1 as substrate in presence of [gamma-33P]ATP; type: protein-complex assay
MCF7 = assay: Cytotoxicity against human MCF7 cells assessed as cell growth at 10 uM after 48 hrs by SRB assay relative to control; type: functional; conditions: MCF7, 48 h, read-out: Activity
HCT-116 = assay: Cytotoxicity against human HCT116 cells assessed as cell growth at 10 uM after 48 hrs by SRB assay relative to control; type: functional; conditions: HCT-116, 48 h, read-out: Activity
[5] = molecular target: Dual specificity tyrosine-phosphorylation-regulated kinase 1A (Rattus norvegicus) (UniProt Q63470); assay: Inhibition of recombinant rat DYRK1A kinase domain expressed in bacteria assessed as residual activity at 10 uM using KKISGRLSPIMTEQ as substrate in presence of [gamma-33P]ATP
TK-10 = assay: Cytotoxicity against human TK10 cells assessed as cell growth at 10 uM after 48 hrs by SRB assay relative to control; type: functional; conditions: TK-10, 48 h, read-out: Activity
[6] = molecular target: Cyclin-dependent kinase 5/CDK5 activator 1 (Homo sapiens) (UniProt Q00535+Q15078); assay: Inhibition of recombinant full length human CDK5/p25 expressed in bacteria assessed as residual activity at 10 uM using histone H1 as substrate in presence of [gamma-33P]ATP
UO-31 = assay: Cytotoxicity against human UO31 cells assessed as cell growth at 10 uM after 48 hrs by SRB assay relative to control; type: functional; conditions: UO-31, 48 h, read-out: Activity
SF-268 = assay: Cytotoxicity against human SF268 cells assessed as cell growth at 10 uM after 48 hrs by SRB assay relative to control; type: functional; conditions: SF-268, 48 h, read-out: Activity
[7] = molecular target: T1, Receptor-interacting serine/threonine-protein kinase 3; assay: Inhibition of recombinant full length human RIPK3 expressed in baculovirus infected Sf9 insect cells using MBP as substrate in presence of [gamma-33P]ATP
Target sequence in this assay (Q9Y572 whole entry): as the sequence (Q9Y572 whole entry, looked up) above

SW-620 = assay: Cytotoxicity against human SW620 cells assessed as cell growth at 10 uM after 48 hrs by SRB assay relative to control; type: functional; conditions: SW-620, 48 h, read-out: Activity
OVCAR-5 = assay: Cytotoxicity against human OVCAR5 cells assessed as cell growth at 10 uM after 48 hrs by SRB assay relative to control; type: functional; conditions: OVCAR-5, 48 h, read-out: Activity
[8] = molecular target: Serine/threonine-protein kinase pim-1 (Homo sapiens, UniProt P11309); assay: Inhibition of recombinant full length human PIM1 expressed in bacteria assessed as residual activity at 10 uM using histone H1 as substrate in presence of [gamma-33P]ATP
SK-MEL-28 = assay: Cytotoxicity against human SK-MEL-28 cells assessed as cell growth at 10 uM after 48 hrs by SRB assay relative to control; type: functional; conditions: SK-MEL-28, 48 h, read-out: Activity
SK-OV-3 = assay: Cytotoxicity against human SKOV3 cells assessed as cell growth at 10 uM after 48 hrs by SRB assay relative to control; type: functional; conditions: SK-OV-3, 48 h, read-out: Activity
MDA-MB-435 = assay: Cytotoxicity against human MDA-MB-435 cells assessed as cell growth at 10 uM after 48 hrs by SRB assay relative to control; type: functional; conditions: MDA-MB-435, 48 h, read-out: Activity
HL-60(TB) = assay: Cytotoxicity against human HL-60(TB) cells assessed as cell growth at 10 uM after 48 hrs by SRB assay relative to control; type: functional; conditions: HL-60, 48 h, read-out: Activity
SR = assay: Cytotoxicity against human SR cells assessed as cell growth at 10 uM after 48 hrs by SRB assay relative to control; type: functional; conditions: read-out: Activity

Sequence of Serine/threonine-protein kinase pim-1 (P11309 whole entry, looked up): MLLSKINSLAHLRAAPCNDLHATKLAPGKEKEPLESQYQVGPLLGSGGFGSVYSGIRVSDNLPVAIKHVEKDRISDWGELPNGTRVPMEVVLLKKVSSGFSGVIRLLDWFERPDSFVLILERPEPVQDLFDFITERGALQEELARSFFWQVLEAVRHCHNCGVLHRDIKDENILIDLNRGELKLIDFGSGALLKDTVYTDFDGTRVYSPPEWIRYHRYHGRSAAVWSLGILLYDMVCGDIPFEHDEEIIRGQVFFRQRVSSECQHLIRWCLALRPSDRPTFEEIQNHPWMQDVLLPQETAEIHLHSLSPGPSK
Sequence of CDK9/cyclin T1 (O60563 whole entry): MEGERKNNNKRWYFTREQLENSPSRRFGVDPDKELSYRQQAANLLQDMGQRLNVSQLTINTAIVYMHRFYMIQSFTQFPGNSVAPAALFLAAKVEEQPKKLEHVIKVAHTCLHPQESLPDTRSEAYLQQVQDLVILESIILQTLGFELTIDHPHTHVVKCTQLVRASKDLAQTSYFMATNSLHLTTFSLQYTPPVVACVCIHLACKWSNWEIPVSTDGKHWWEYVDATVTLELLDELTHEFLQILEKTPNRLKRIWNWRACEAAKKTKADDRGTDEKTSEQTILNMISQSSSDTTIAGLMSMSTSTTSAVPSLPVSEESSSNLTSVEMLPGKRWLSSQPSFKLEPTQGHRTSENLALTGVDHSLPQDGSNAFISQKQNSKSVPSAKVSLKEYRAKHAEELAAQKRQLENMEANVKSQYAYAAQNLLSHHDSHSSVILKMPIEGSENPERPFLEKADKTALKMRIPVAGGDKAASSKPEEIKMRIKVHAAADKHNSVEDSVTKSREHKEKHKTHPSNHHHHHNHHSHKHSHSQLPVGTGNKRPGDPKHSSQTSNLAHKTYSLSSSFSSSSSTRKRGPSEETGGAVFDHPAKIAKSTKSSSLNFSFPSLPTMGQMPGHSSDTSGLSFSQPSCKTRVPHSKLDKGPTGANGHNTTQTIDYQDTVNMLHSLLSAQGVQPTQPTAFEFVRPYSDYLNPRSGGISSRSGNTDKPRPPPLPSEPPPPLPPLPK
Sequence of CDK9/cyclin T1 (P50750 whole entry): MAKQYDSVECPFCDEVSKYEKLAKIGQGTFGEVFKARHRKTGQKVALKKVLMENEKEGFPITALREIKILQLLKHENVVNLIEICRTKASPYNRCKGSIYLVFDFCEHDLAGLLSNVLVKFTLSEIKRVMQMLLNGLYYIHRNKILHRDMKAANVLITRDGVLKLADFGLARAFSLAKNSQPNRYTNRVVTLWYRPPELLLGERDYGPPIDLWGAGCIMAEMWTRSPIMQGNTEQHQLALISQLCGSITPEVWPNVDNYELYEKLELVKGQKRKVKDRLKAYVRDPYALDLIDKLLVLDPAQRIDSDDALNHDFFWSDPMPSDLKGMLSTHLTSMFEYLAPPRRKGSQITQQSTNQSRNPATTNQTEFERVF
Sequence of Cyclin-dependent kinase 5/CDK5 activator 1 (Homo sapiens) (Q00535 whole entry): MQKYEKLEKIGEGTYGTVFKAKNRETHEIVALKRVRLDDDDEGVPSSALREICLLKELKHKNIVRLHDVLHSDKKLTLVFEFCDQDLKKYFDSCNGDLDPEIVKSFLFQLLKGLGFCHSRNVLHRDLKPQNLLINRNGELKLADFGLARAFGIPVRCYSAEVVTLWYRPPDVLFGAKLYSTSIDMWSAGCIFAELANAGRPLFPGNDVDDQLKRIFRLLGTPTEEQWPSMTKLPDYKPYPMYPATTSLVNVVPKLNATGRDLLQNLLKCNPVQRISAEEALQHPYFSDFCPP
Sequence of Cyclin-dependent kinase 5/CDK5 activator 1 (Homo sapiens) (Q15078 99-307 partner limits assumed): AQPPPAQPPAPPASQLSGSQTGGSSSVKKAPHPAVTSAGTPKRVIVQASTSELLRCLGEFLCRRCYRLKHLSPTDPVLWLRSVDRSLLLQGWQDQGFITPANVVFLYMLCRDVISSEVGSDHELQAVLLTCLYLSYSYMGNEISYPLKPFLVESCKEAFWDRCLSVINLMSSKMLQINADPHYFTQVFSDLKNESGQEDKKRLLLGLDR
Sequence of Aurora kinase B (Q96GD4 whole entry): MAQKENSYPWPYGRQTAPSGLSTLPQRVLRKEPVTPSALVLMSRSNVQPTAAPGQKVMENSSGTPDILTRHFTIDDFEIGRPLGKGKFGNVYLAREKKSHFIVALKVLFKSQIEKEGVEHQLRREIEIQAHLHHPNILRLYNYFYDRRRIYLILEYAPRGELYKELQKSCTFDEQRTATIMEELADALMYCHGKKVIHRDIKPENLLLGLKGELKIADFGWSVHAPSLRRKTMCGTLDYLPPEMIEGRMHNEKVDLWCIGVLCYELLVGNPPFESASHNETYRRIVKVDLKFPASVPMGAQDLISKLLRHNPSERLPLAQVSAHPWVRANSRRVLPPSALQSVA

SMILES | growth at 10 µM (SN12C) [%] | IC50 [1] [µM] | growth at 10 µM (LOX IMVI) [%] | Activity (Aurora kinase B) [%] | growth at 10 µM (NCI-H460) [%] | growth at 10 µM (HOP-62) [%] | Activity (Sus scrofa domesticus) [%] | IC50 (CDK9/cyclin T1) [µM] | Activity [2] [%] | Activity [3] [%] | growth at 10 µM (RPMI-8226) [%] | Activity [4] [%] | growth at 10 µM (MCF7) [%] | growth at 10 µM (HCT-116) [%] | Activity [5] [%] | growth at 10 µM (TK-10) [%] | Activity [6] [%] | growth at 10 µM (UO-31) [%] | growth at 10 µM (SF-268) [%] | IC50 [7] [µM] | other results
N#CCCCCCn1cc(C2=C(c3cn(CCCCCC#N)c4ccccc34)C(=O)N(O)C2=O)c2ccccc21 | 47 to 88.2 | > 10 | 19 to 30.5 | 75 | 28 to 72.7 | 45 to 66.5 | 67 | > 10 | 5 | 109 | 39.1 | 78 | 14 to 39.9 | 21 to 63.3 | 38 | 70 to 84.2 | 75 | 23 to 43.8 | 50 to 80.6 | > 10 | growth at 10 µM (SK-MEL-5): 2 to 39.4%; growth at 10 µM (Hs-578T): 25 to 80%; growth at 10 µM (SNB-75): 14 to 67.7%; growth at 10 µM (SW-620): 31 to 62.5%; growth at 10 µM (OVCAR-5): 95 to 106%; Activity [8]: 78%; growth at 10 µM (SK-MEL-28): 35 to 83.3%; growth at 10 µM (SK-OV-3): 45 to 78.5%
Cn1cc(C2=C(c3c[nH]c4ccccc34)C(=O)N(O)C2=O)c2ccccc21 | 97.8 | > 10 | 51 | 79 | 87.4 | 67.9 | 40 | 2 | -18 | 100 | 51.7 | 77 | 30.9 | 83.3 | 46 | 120 | 66 | 40.5 | 90.4 | > 10 | growth at 10 µM (MDA-MB-435): 17.1%; growth at 10 µM (HL-60(TB)): 72.8%; growth at 10 µM (SK-MEL-5): 72%; growth at 10 µM (Hs-578T): 96.3%; growth at 10 µM (SR): 30.9%; growth at 10 µM (SNB-75): 72.5%; growth at 10 µM (SW-620): 87.7%; growth at 10 µM (OVCAR-5): 95%; Activity [8]: 8%; growth at 10 µM (SK-MEL-28): 92%; growth at 10 µM (SK-OV-3): 92.1%
Cn1cc(C2=C(c3cn(C)c4ncccc34)C(=O)NC2=O)c2ccccc21 | 4 to 30.7 | > 10 | 16 to 41 | 84 | 19 to 19.5 | 21 to 40.6 | 76 | 0.08 | -21 | 79 | 45.4 | -3 | 13 to 22.7 | 15 to 21.9 | 30 | 26.3 to 33 | -1 | 12 to 22.6 | 27 to 50.2 | > 10 | growth at 10 µM (MDA-MB-435): 12.9 to 14%; growth at 10 µM (HL-60(TB)): 3.55 to 9%; growth at 10 µM (SR): 7 to 12.1%; growth at 10 µM (SW-620): 12.9 to 20%; growth at 10 µM (OVCAR-5): 13 to 54.6%; Activity [8]: 1%; growth at 10 µM (SK-MEL-28): 8 to 51.3%
N#CCCCCCn1cc(C2=C(c3cn(CCCCCC#N)c4ccccc34)C(=O)NC2=O)c2ccccc21 | 87.7 | 0.62 | 69.5 | 83 | 86.8 | 118 | 108 | 0.42 | 11 | 100 | 86.8 | 36 | 48.9 | 65.9 | 9 | 101 | 46 | 72.7 | 107 | > 10 | growth at 10 µM (MDA-MB-435): 105%; growth at 10 µM (SK-MEL-5): 78.7%; growth at 10 µM (Hs-578T): 59.7%; growth at 10 µM (SNB-75): 47.2%; growth at 10 µM (SW-620): 108%; growth at 10 µM (OVCAR-5): 128%; Activity [8]: 54%; growth at 10 µM (SK-MEL-28): 133%; growth at 10 µM (SK-OV-3): 57%
Cn1cc(C2=C(c3cn(C)c4ccccc34)C(=O)N(O)C2=O)c2ccccc21 | 94.5 | > 10 | 72.8 | 84 | 99.5 | 97 | 104 | 9 | -13 | 100 | 79.3 | 83 | 86.2 | 99.9 | 81 | 118 | 82 | 74.2 | 112 | > 10 | growth at 10 µM (MDA-MB-435): 94.9%; growth at 10 µM (HL-60(TB)): 87.1%; growth at 10 µM (SK-MEL-5): 92.8%; growth at 10 µM (Hs-578T): 95.8%; growth at 10 µM (SR): 75.4%; growth at 10 µM (SNB-75): 90.3%; growth at 10 µM (SW-620): 95.9%; growth at 10 µM (OVCAR-5): 105%; Activity [8]: 33%; growth at 10 µM (SK-MEL-28): 107%; growth at 10 µM (SK-OV-3): 101%
CC(C)n1cc(C2=C(c3cn(C)c4ccccc34)C(=O)N(O)C2=O)c2ccccc21 | 95.2 | > 10 | 61.5 | 95 | 98.3 | 84.6 | 98 | 1.5 | -16 | 103 | 68.3 | 23 | 91.6 | 85.4 | 54 | 127 | 34 | 56.4 | 97.3 | > 10 | growth at 10 µM (MDA-MB-435): 104%; growth at 10 µM (HL-60(TB)): 98.7%; growth at 10 µM (SK-MEL-5): 76.2%; growth at 10 µM (Hs-578T): 91.2%; growth at 10 µM (SNB-75): 84.9%; growth at 10 µM (SW-620): 101%; growth at 10 µM (OVCAR-5): 90.3%; Activity [8]: 28%; growth at 10 µM (SK-MEL-28): 112%; growth at 10 µM (SK-OV-3): 95.8%
